{
  "source": "paper PMC12194779",
  "about": "“Synergistic Insecticidal Activity of Plant Volatile Compounds: Impact on Neurotransmission and Detoxification Enzymes in Sitophilus zeamais” (Insects, 2025)",
  "key": {"[1]": {"test_system": "CAT activity in S. oryzae", "set-up": "method as in PMID 31027573", "settings": "cited from earlier work"}, "[2]": {"settings": "cited from earlier work"}, "Sitophilus zeamais [3]": {"test_system": "Sitophilus zeamais", "type": "in vivo", "settings": "for Contact Toxicity LD50 (95% FL) / Contact Toxicity LD90 (95% FL): topical, 24 h after exposure", "experimental": "(§1) The insects used in this study were Sitophilus zeamais Motschulsky (Coleoptera: Curculionidae), identified by the Instituto Colombiano Agropecuario (ICA) under report number R3823M0000425. […] The adult insects used in all the experiments were 6 to 10 days post-emergence.\nGroups of 10 insects, previously placed in Petri dishes, were immobilized by exposure to low temperatures (0 °C). An initial dose of 50.0 µg per adult was applied topically to the dorsal thorax of each insect using aliquots of 0.20 µL from 0.25 mg/µL solutions in n-hexane. […] All treatments were performed in two independent experiments, each with four replicates. Insect mortality was assessed after 24 h, and mortality percentages were calculated using Abbott’s correction formula (Equation (1)).\n(§2) Mixtures predicted by the RSM were prepared based on mole fractions. […] Four replicates were performed for each treatment and control across two independent experimental runs.\nDose reduction indices (DRIs) were also calculated to estimate how much the dose of each compound in a synergistic combination could be reduced to achieve a 50% effect (Equation (4)). DRIs were interpreted as favorable when >1, neutral at 1, and unfavorable when <1."}, "AChE of S. zeamais": {"test_system": "AChE of S. zeamais", "test": "AChE activity assay (modified Ellman) with S. zeamais protein extract", "type": "biochemical, Sitophilus zeamais", "set-up": "key to AChE Effect Inhibitor Type: C: competitive inhibitor; NC: non-competitive inhibitor", "experimental": "The compounds and mixtures evaluated in the in vitro assays were prepared in the same buffer supplemented with 0.5% (v/v) Triton X-100 (Sigma-Aldrich®, Saint Louis, MO, USA).\nThe supernatant was filtered, and 20 mM benzamidine was added. The extracts were stored in 5 mL aliquots at −20 °C. Preliminary assays were performed to quantify the specific activity of AChE (0.02–1.00 U/mL), GST (0.1–0.8 U/mL), and CAT (0.1–25 U/mL), and to optimize assay conditions (enzyme dilution: 1/8 to 1% v/v; substrate concentrations: 2 × km or within assay linearity).\nThen, 50 µL of DTNB and 50 µL of ATChI were added. […] Inhibition percentages were calculated using Equation (5)."}, "[4]": {"test_system": "glutathione S-transferase (GST) activity in S. zeamais", "test": "GST activity assay (modified Habig) with S. zeamais protein extract", "type": "biochemical, Sitophilus zeamais", "settings": "120 mg/L", "experimental": "Enzymatic assays were performed in the assay buffer, consisting of 0.1 M potassium phosphate buffer (pH 7.2). The compounds and mixtures evaluated in the in vitro assays were prepared in the same buffer supplemented with 0.5% (v/v) Triton X-100 (Sigma-Aldrich®, Saint Louis, MO, USA).\nA modified version of the method described by Oviedo et al. was used. Adults of S. zeamais (8 g; ~3125 insects) were frozen in liquid nitrogen, homogenized in a 1:10 ratio with assay buffer, and centrifuged at 13,000× g for 60 min at 4 °C. The supernatant was filtered, and 20 mM benzamidine was added. The extracts were stored in 5 mL aliquots at −20 °C. Preliminary assays were performed to quantify the specific activity of AChE (0.02–1.00 U/mL), GST (0.1–0.8 U/mL), and CAT (0.1–25 U/mL), and to optimize assay conditions (enzyme dilution: 1/8 to 1% v/v; substrate concentrations: 2 × km or within assay linearity). Each experiment was performed independently three times, with three technical replicates per experiment.\nA modified version of Habig’s method was used. The protein extract (50 µL; 0.59 U/mL) was incubated with 50 µL of the compound or mixture (120 mg/L), followed by 50 µL each of CDNB and reduced glutathione (GSH). Kinetic absorbance was measured at 340 nm for 8 min. Blanks (without substrate) and quercetin (positive control) were included. Inhibition (%) was calculated using Equation (5), and treatment differences were evaluated via parametric ANOVA (α = 0.05) in GraphPad Prism 8.0.2 [42, 43]. Each experiment was performed independently three times, with three technical replicates per experiment.(5) % Inhibition=1−Am−AB/AC ×100 where Am is the absorbance of the sample, AB is the absorbance of the blank, and AC is the absorbance of the negative control."}, "S. zeamais [5]": {"test_system": "S. zeamais", "set-up": "method as in PMID 21173724, PMID 22236213", "settings": "cited from earlier work"}, "Sitophilus zeamais [6]": {"test_system": "Sitophilus zeamais", "test": "whole plant or invertebrate", "settings": "Sitophilus zeamais", "experimental": "as §1\nThe treated disks were affixed to the inner surface of the screw cap of 22 mL glass vials. […] All treatments were performed in two independent experiments, each with five replicates.\nas §2\nDose reduction indices (DRIs) were also calculated to estimate how much the dose of each compound in a synergistic combination could be reduced to achieve a 50% effect (Equation (4)). DRIs were interpreted as favorable when >1, neutral at 1, and unfavorable when <1. Values above the log DRI = 0 line indicate favorable dose reductions.(4) (IRD)i=CL50i(fax)i/(1−(fax)i)^1/mi/(D)i"}, "S. zeamais [7]": {"test_system": "S. zeamais", "settings": "7-day exposure; cited from earlier work"}},
  "note": "Several values for one entry are separate records, joined by “and”; a condition that tells them apart may be missing. Identical values can stand only once. Like-named read-outs stand apart in the source and are kept apart here.",
  "data": [
    {"smiles": "CC(C)[C@@H]1CC[C@@H](C)CC1=O", "note": "[menthone]", "values": [
      {"measurement": "reduction of CAT activity", "setting": "[1]", "value": "~ 30%"}
    ]},
    {"smiles": "CC1(C)C(C=C(Cl)Cl)C1C(=O)OCc1cccc(Oc2ccccc2)c1", "note": "(stereo not shown) [permethrin]", "values": [
      {"measurement": "reported LD50", "setting": "[2]", "value": 42.75, "unit": "µg/adult"}
    ]},
    {"smiles": "CC1(C)[C@H](C(=O)O[C@H](C#N)c2cccc(Oc3ccccc3)c2)[C@@H]1C=C(Br)Br", "note": "[deltamethrin]", "values": [
      {"measurement": "mortality", "setting": "[2]; 1 ppm, after 14 days", "value": 45, "unit": "%"}
    ]},
    {"smiles": "CC(C)=CCC[C@@H](C)CC=O", "note": "[Compound C33, Citronellal]", "values": [
      {"measurement": "Contact Toxicity LD50i (LC-95%)", "setting": "Sitophilus zeamais [3]; mixtures and their components (Table 3)", "value": 36.94, "unit": "µg/Adult"},
      {"measurement": "Contact Toxicity LD50 (95% FL)", "setting": "Sitophilus zeamais [3]", "value": "36.94 (34.60–39.14) µg/Adult"},
      {"measurement": "Contact Toxicity LD90 (95% FL)", "setting": "Sitophilus zeamais [3]", "value": "50.64 (47.46–55.39) µg/Adult"},
      {"measurement": "AChE inhibition type (Lineweaver–Burk plots), in words", "setting": "AChE of S. zeamais", "value": "competitive inhibition"},
      {"measurement": "AChE Effect Inhibitor Type", "setting": "AChE of S. zeamais; Lineweaver–Burk", "value": "C"},
      {"measurement": "AChE Effect IC50 ± SD", "setting": "AChE of S. zeamais; S. zeamais protein extract", "value": "7.72 ± 0.78", "unit": "µg/mL"},
      {"measurement": "Ki", "setting": "AChE of S. zeamais; S. zeamais protein extract, read-out: AChE Effect ki ± SD (inhibitory constant)", "value": "199 ± 3.51", "unit": "µM"},
      {"measurement": "GST Inhibition λ340 (%)", "setting": "[4]", "value": 4.3, "unit": "%"},
      {"measurement": "Contact LD50 previously reported for 7-day assays", "setting": "S. zeamais [5]", "value": 8.54, "unit": "µg/adult"}
    ]},
    {"smiles": "C=C(C)[C@@H]1CC=C(C)C(=O)C1", "note": "[Compound C4, R-(−)-Carvone]", "values": [
      {"measurement": "LC50", "setting": "Sitophilus zeamais [6]; in Homo sapiens, 24 h, read-out: Fumigant Toxicity LC50 (95% FL)", "value": "1.42 µg/mL and 9.48 µM"},
      {"measurement": "EC90", "setting": "Sitophilus zeamais [6]; in Homo sapiens, 24 h, read-out: Fumigant Toxicity LC90 (95% FL)", "value": "2.17 µg/mL and 14.4 µM"},
      {"measurement": "LC50", "setting": "Sitophilus zeamais [6]; read-out: LC50 values, fumigant activity (Figure 3)", "value": 1.42, "unit": "µg/mL"},
      {"measurement": "Contact Toxicity LD50 (95% FL)", "setting": "Sitophilus zeamais [3]", "value": "16.89 (14.56–19.35) µg/Adult"},
      {"measurement": "Contact Toxicity LD90 (95% FL)", "setting": "Sitophilus zeamais [3]", "value": "28.45 (24.99–34.24) µg/Adult"},
      {"measurement": "Contact LD50 previously reported for 7-day assays", "setting": "S. zeamais [5]", "value": 2.79, "unit": "µg/adult"},
      {"measurement": "Fumigant LC50 reported in 7-day exposure assays", "setting": "S. zeamais [7]", "value": 2.76, "unit": "µg/mL"}
    ]}
  ]
}
